# Data taken from patent publication US11702546B2, “Near-infrared heptamethine dyes for generation of singlet oxygen” (California Institute of Technology, priority 2018, dated 2023).
# “Also recorded” adds a separate entry of the source.
# Assays:
# [1] = Irradiation experiments with singlet oxygen trap DPBF (NIR laser, absorbance readout vs dark control); format: physicochemical; conditions: for change in DPBF signal after irradiation: 980 nm laser, 1 W cm-2, CDCl3, 30 minutes, relative to dark control
# Procedure: (§1) IR-1061 tetrafluoroborate and dry pyridine were purchased from commercial sources and used as supplied. Deuterated chloroform was purchased from commercial sources and filtered through a neutral alumina plug prior to use to neutralize and dry the solvent. Irradiations at 980 nm were performed using a 1 watt/cm^2 infrared diode laser at 980 nm coupled to a PSU-III-FDA power supply. Irradiations at 1064 nm were performed using an Nd:YAG laser at 1.8 W/cm^2. Absorbance spectra were obtained using an Agilent CARY 60 UV-Vis for spectra below 1000 nm, and a Cary 5000 UV-VIS-NIR for spectra above 1000 nm. Mass spectrometry characterization was performed via MALDI using a BRUKER MALDI/TOF Autoflex Speed and a Waters LCT Premier XE Electrospray TOF. 1H NMR spectra were obtained using a Varian 600 MHz Spectrometer.
# Dye was dissolved in deuterated solvent at a concentration that would produce an absorbance near 1 at 980 nm. This was calculated using extinction coefficients determined by absorbance measurements of the dye alone. The IR-1061-acridinium irradiation in water was an exception, as the concentration was kept lower to ensure solubility. Dye solution was split into two aliquots and added to two 1 cm by 1 cm quartz cuvettes purchased from Starna. The absorption spectra were taken for both cuvettes (to ensure the pre-irradiation sample looked the same in both cases), and subsequently one cuvette was irradiated while the other was kept in the dark. A stir bar was used to ensure proper mixing during irradiation. After irradiation, the absorbance of both solutions was again evaluated. […] For the 1064 nm irradiation, the dye was dissolved at a slightly higher concentration to an absorbance of approximately 1.5 at 1064 nm and irradiated for 5 minutes. At this point significant photobleaching of the dye was observed, so additional irradiation was not performed.
# The freeze-pump-thaw (FPT) experiment was carried out as follows. Dye was dissolved in deuterated chloroform and added to a FPT that apparatus. Three consecutive freeze-pump-thaw cycles were carried out to a pressure of less than […], at which point the solution was transferred under vacuum to the arm of the apparatus containing a fused 1 cm by 1 cm quartz cuvette (Starna). Irradiation and subsequent absorption measurements were carried out in the sealed cuvette.
# The pyridine addition reaction was extremely sensitive to water, but gave good conversion using dry pyridine. […] Despite this inconvenience, the slightly impure dye was used as a proof of principle. For initial singlet oxygen generation experiments, the dye was dissolved in CDCl3—the solvent in which it had the highest solubility—and irradiated using a 1 Wcm^−2 980 nm laser in the presence of a singlet oxygen trap, diphenylisobenzofuran (DPBF). DPBF was selected as a trap because it is a standard in the field and because other popular detectors (such as singlet oxygen sensor green, SOSG) led to precipitation of IR-1061-pyridinium over time.
# [2] = Stability and solubility observations of the dye; format: physicochemical
# [3] = Comparative quantum yield experiments (DPBF bleaching vs phenalenone); format: physicochemical; conditions: chloroform; for percent decrease in DPBF signal at 415 nm: 30 seconds; for relative quantum yield of singlet oxygen generation: 1064 nm, relative to phenalenone, corrected for photon flux
# From the text: Phenalenone, a highly efficient singlet oxygen generator with a known singlet oxygen quantum yield of 0.97 in chloroform was used to benchmark the efficiency of IR-1061-acridinium singlet oxygen generation in chloroform. A solution of phenalenone at an absorbance of 0.30 at 365 nm was generated that also contained DPBF at an absorbance of approximately 1.0. This solution was irradiated for 30 seconds using a 365 nm variable power LED (3-300 mW, Thor labs) at 30 mW/cm^2. The percent decrease in DPBF signal at 415 nm was calculated, taking into account any background from phenalenone. This was done in triplicate. A similar experiment was then run using IR-1061-acridinium. A solution containing the dye at an absorbance of 0.30 at 1064 and DPBF at an absorbance of approximately 1.0 was irradiated for 30 seconds using a 1064 nm Nd:YAG laser with a power output of 1.8 W/cm^2. The percent decrease in DPBF signal at 415 nm was then calculated, taking into account any background from IR-1061-acridinium. This was also done in triplicate.
# The percent decrease attributed to phenalenone was calculated to be 0.53 and the percent decrease attributed to IR-1061-acridinium was calculated to be 0.29. To account for the difference in photon flux at these two wavelengths, the ratio of the photon flux was calculated, where the photon flux was described by the following equation: PF=I*λ/(h*c*Na). PF stands for photon flux, I is the irradiation intensity, λ is the irradiation wavelength, his Planck's constant, c is the speed of light and Na is Avogadro's number. The ratio of the photon flux was simplified to PFR=(IPhe*λPhe)/(IIR*λIr)=(0.03 W/cm^2*365 nm)/(1.8 W/cm^2*1064 nm)=0.006. Considering this difference in photon flux and phenalenone's known quantum yield of singlet oxygen generation of 0.97, this yielded a relative quantum yield of about 0.003, or 0.3%.
# [4] = in chloroform, irradiation at 365 nm; cited from earlier work
# NIR absorbance spectrum = format: physicochemical; set-up: dose or concentration left out as unconfirmed; conditions: CDCl3
# Procedure: as §1
# [5] = 980 nm, D2O with DMSO-D6 for solubility
# [6] = 1064 nm laser, 1.8 W cm-2, CDCl3, 5 minutes
smiles,measurement,setting,value
"ClC1=C(/C=C/c2cc(-c3ccccc3)[s+]c(-c3ccccc3)c2)CCC/C1=C\C=C1C=C(c2ccccc2)SC(c2ccccc2)=C1 [IR-1061, reference compound]",change in DPBF signal after irradiation,[1],no significant changes in DPBF signal
C(/C=C1\CCCC(/C=C/c2cc(-c3ccccc3)[s+]c(-c3ccccc3)c2)=C1[n+]1c2ccccc2cc2ccccc21)=C1C=C(c2ccccc2)SC(c2ccccc2)=C1 [IR-1061-acridinium BArF],solubility after counterion exchange BF4- to BArF-,[2]; compared with BF4- salt,increase in solubility
same,photosensitization capability after counterion exchange BF4- to BArF-,"[1]; 980 nm, CDCl3, compared with tetrafluoroborate salt",marked decrease in photosensitization capability; also recorded: Reactivity was significantly reduced
C(/C=C1\CCCC(/C=C/c2cc(-c3ccccc3)[s+]c(-c3ccccc3)c2)=C1[n+]1ccccc1)=C1C=C(c2ccccc2)SC(c2ccccc2)=C1 [IR-1061-pyridinium],stability to hydration during purification,[2]; all evaluated purification conditions,too sensitive to isolate in pure form due to hydration
same,change in DPBF signal after irradiation,[1],significant decrease in the DPBF signal
"O=C1C=Cc2cccc3cccc1c23 [phenalenone, reference compound]",percent decrease in DPBF signal at 415 nm,"[3]; 365 nm LED at 30 mW/cm2, absorbance 0.30 at 365 nm, triplicate",0.53
same,known singlet oxygen quantum yield,[4],0.97
C(/C=C1\CCCC(/C=C/c2cc(-c3ccccc3)[s+]c(-c3ccccc3)c2)=C1[n+]1c2ccccc2cc2ccccc21)=C1C=C(c2ccccc2)SC(c2ccccc2)=C1 [IR-1061-acridinium],λmax of NIR absorbance,NIR absorbance spectrum,1078
same,relative quantum yield of singlet oxygen generation,[3],about 0.003
same,relative quantum yield of singlet oxygen generation,[3]; approximate,~0.3%
same,percent decrease in DPBF signal at 415 nm,"[3]; 1064 nm Nd:YAG laser at 1.8 W/cm2, absorbance 0.30 at 1064, triplicate",0.29
same,effect of introduction of protein (BSA),[2]; BSA added,precipitation of the dye
same,change in DPBF signal after irradiation,[1],significant DPBF photobleaching was observed only after 30 minutes
same,DPBF degradation rate in water,[1]; [5],comparable to those seen in chloroform
same,photobleaching of the dye in water,[1]; [5],high levels of photobleaching
same,singlet oxygen generation in nonpolar solvents,"[1]; 980 nm, deuterated nonpolar solvents such as toluene",no singlet oxygen generation was observed
same,DPBF degradation in polar aprotic solvents,"[1]; 980 nm, deuterated polar aprotic solvents such as DMSO",decreased DPBF degradation
same,"change in DPBF signal, freeze-pump-thawed sample devoid of oxygen","[1]; 980 nm, freeze-pump-thawed CDCl3",no change in DPBF signal
same,DPBF photobleaching after irradiation,[1]; [6],near complete photobleaching of DPBF; also recorded: Rapid bleaching of both the dye and DPBF signal
same,bleaching of the dye during irradiation,[1]; [6],significant bleaching of the dye
